# According to patent US8828931B2, “Bifunctional molecules for inhibiting HIV entry” (priority 2008, dated 2014):
# Where two headings read alike, the source gives them in different places. No end group written: not given here.
# What was measured:
# [1] = In vitro stability in human serum, residual activity by cell-cell fusion inhibition assay; conditions: 16 μM, 37° C., 100% human serum
# Excerpt: (§1) Samples were collected at different intervals and tested for the residual concentrations of the active component using cell-cell fusion inhibition assay as described above.
# HIV-1 IIIB (B, X4) = system: HIV-1 IIIB (B, X4)
# Experimental: The inhibitory activity of the bifunctional molecule on HIV-1 IIIB infection was determined by ELISA for p24 production (Jiang S et al. J Exp Med 174:1557-1563, 1991). Briefly, MT-2 cells were infected with HIV-1IIIB at 100 TCID50 (50% tissue culture infective dose) in RPMI 1640 medium containing 10% FBS in the presence or absence of an antigen specific antiserum or IgG antibody in serial 2-fold dilutions at 37° C. overnight. The culture supernatants were then removed and fresh media were added. On day 4 post-infection, the culture supernatants were collected and mixed with equal volumes of 5% Triton X-100 for the detection in the p24 protein ELISA.
# proteinase K = proteinase K (Parengyodontium album, UniProt P06873); test: Resistance to proteolysis by proteinase K; conditions: 4 μM in PBS, immobilized proteinase K 0.1 unit/ml, 37° C.
# Chain of proteinase K (P06873 106-384): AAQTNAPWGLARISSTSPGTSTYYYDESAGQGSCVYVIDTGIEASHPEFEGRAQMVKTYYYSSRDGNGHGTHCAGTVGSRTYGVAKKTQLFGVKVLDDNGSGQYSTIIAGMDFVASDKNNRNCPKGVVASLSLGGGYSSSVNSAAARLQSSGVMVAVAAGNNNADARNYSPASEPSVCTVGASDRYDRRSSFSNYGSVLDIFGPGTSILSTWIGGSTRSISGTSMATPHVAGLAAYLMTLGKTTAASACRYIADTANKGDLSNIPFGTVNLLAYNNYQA
# NL4-3V38A/N42G = system: NL4-3V38A/N42G
# Experimental: Briefly, 2×10^5 or 5×10^5 CEMx174 5.25M7 cells were infected with HIV-1 or HIV-2, respectively, at 100 TCID50 (50% tissue culture infective dose) in RPMI 1640 medium containing 10% FBS in the absence or presence of an antisera or purified IgG antibodies at graded concentrations overnight. On the fourth day post-infection, cells were harvested and lysed using a lysis buffer (Promega, Madison, Wis.). The luciferase activity was measured by Ultra 384 luminometer reader (Tecan) and the percent inhibition was calculated.
# 93IN101 (B, R5) = type: cell-based, HIV-1
# Experimental: (§2) Briefly, the peripheral blood mononuclear cells (PBMCs) were isolated from the blood of healthy donors using a standard density gradient (Histopaque-1077, Sigma) centrifugation. After incubation at 37° C. for 2 hr, the nonadherent cells were collected and resuspended at 5×10^5/ml in RPMI 1640 medium containing 10% FBS, 5 μg of phytohemagglutinin (PHA)/ml, and 100 U of IL-2/ml, followed by incubation at 37° C. for 3 days. The PHA-stimulated cells were infected with the corresponding primary HIV-1 isolates at a multiplicity of infection (MOI) of 0.01 in the absence or presence of antisera at a serial 2-fold dilution. The supernatants were collected 7 days post-infection and tested for p24 antigen by ELISA as described above. The IC50 was calculated using the CalcuSyn
# (§3) software as described above.
# 92US657 (B, R5) = type: cell-based, HIV-1
# Experimental: as §2, §3
# [2] = In vitro stability in PBMC culture, residual activity by cell-cell fusion inhibition assay; conditions: 16 μM, 37° C.
# Excerpt: as §1
# [3] = system: HIV-1 IIIB-mediated cell fusion (H9/HIV-1 IIIB effector cells, MT-2 target cells); conditions: H9/HIV-1 IIIB and MT-2 cells, dye transfer
# Experimental: HIV-1-mediated cell-cell fusion was determined by a dye transfer assay (Lu H et al. J Virol Methods 107:155-161, 2003) using Calcein AM-labeled HIV-1IIIB chronically infected H9 (H9/HIV-1 IIIB) cells as effector cells and MT-2 cells as target cells.
Substance,residual activity in human serum after 6 days [1] [%],"IC50 (HIV-1 IIIB (B, X4); IIIB (B, X4)) [nM]","IC90 (HIV-1 IIIB (B, X4); IIIB (B, X4)) [nM]",treatment time with proteinase K after which activity was totally lost (proteinase K) [min],"inhibition of infection by T20-resistant strain (NL4-3V38A/N42G; concentration up to 2,000 nM)","IC50 (NL4-3V38A/N42G; read-out: IC50, HIV-1 replication, NL4-3V38A/N42G, T20-resistant HIV-1 strain, luciferase) [nM]","IC90 (NL4-3V38A/N42G; read-out: IC90, HIV-1 replication, NL4-3V38A/N42G, T20-resistant HIV-1 strain, luciferase) [nM]","IC50 (93IN101 (B, R5)) [nM]","IC90 (93IN101 (B, R5)) [nM]","IC50 (92US657 (B, R5)) [nM]","IC90 (92US657 (B, R5)) [nM]",time after which activity began to be lost in PBMC ([2]; PBMC in RPMI1640 with 10% FBS) [days],"activity lost in PBMC after 6 days incubation ([2]; PBMC, 6 days) [%]","IC50 ([3]; read-out: IC50, concentration for inhibiting HIV-1 IIIB-mediated cell fusion) [nM]","IC90 ([3]; read-out: IC90, concentration for inhibiting HIV-1 IIIB-mediated cell fusion) [nM]","IC50 (HIV-1 IIIB (B, X4); read-out: IC50, HIV-1 replication, IIIB (B, X4), MT-2 cells, p24) [nM]","IC90 (HIV-1 IIIB (B, X4); read-out: IC90, HIV-1 replication, IIIB (B, X4), MT-2 cells, p24) [nM]"
enfuvirtide,5,68.1,211,5,no inhibition,> 2000,> 2000,2.7,6.5,1.7,13,> 2,> 90,15.9,25.4,,
TTWMAWDREINNYTSLIHSLIRRSQNQQEKNEQELLELDKWASLLWNWF [T1144-C10],,,,,,,,,,,,,,,,> 250,> 250
